Results reported in ChEMBL document CHEMBL5375948, “Development and Pharmacochemical Characterization Discover a Novel Brain-Permeable HDAC11-Selective Inhibitor with Therapeutic Potential by Regulating Neuroinflammation in Mice” (J Med Chem, 2023).

Tests used:
[1] = target: T1, Polyamine deacetylase HDAC10 (Homo sapiens, UniProt Q969S8); test: Inhibition of recombinant full-length human HDAC10 using FITC-H3K27(Ac)-NH2 as substrate by electrophoretic mobility shift assay
T1 sequence (Q969S8 whole entry): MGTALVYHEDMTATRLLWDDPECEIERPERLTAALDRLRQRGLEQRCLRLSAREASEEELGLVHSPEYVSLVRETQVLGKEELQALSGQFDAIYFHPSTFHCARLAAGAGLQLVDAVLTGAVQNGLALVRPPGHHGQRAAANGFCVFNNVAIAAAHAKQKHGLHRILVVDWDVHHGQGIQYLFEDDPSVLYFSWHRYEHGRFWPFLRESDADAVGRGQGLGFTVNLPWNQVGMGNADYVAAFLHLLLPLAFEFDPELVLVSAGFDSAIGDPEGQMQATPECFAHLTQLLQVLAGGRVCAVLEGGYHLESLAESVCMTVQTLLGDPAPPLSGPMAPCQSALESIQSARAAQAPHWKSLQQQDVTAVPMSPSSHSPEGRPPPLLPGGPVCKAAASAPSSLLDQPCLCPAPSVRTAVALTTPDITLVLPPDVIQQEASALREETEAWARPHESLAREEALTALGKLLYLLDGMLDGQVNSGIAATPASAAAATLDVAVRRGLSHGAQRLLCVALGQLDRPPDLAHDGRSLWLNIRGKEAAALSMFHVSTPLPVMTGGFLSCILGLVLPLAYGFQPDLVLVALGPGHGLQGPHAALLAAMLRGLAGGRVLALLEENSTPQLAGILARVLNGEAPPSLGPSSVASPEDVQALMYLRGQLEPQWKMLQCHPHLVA

Histone deacetylase 9 = Histone deacetylase 9 (Homo sapiens, UniProt Q9UKV0); test: Inhibition of recombinant full-length human HDAC9 using FAM-RHKK (trifluor-Ac)-NH2 as substrate by electrophoretic mobility shift assay
Histone deacetylase 2 = Histone deacetylase 2 (Homo sapiens, UniProt Q92769); test: Inhibition of recombinant full-length human HDAC2 using FITC-H3K27(Ac)-NH2 as substrate by electrophoretic mobility shift assay
Histone deacetylase 1 = Histone deacetylase 1 (Homo sapiens, UniProt Q13547); test: Inhibition of recombinant full-length human HDAC1 using FITC-H3K27(Ac)-NH2 as substrate by electrophoretic mobility shift assay
Histone deacetylase 3 = Histone deacetylase 3 (Homo sapiens, UniProt O15379)
Description: Inhibition of recombinant full-length human HDAC3 using FAM-RHKK(Ac)-NH2 as substrate by electrophoretic mobility shift assay

Histone deacetylase 4 = Histone deacetylase 4 (Homo sapiens, UniProt P56524); test: Inhibition of recombinant full-length human HDAC4 using FAM-RHKK (trifluor-Ac)-NH2 as substrate by electrophoretic mobility shift assay
Histone deacetylase 11 = target: T2, Histone deacetylase 11 (Homo sapiens, UniProt Q96DB2); test: Inhibition of recombinant full-length human HDAC11 using FAM-RHKK (trifluor-Ac)-NH2 as substrate by electrophoretic mobility shift assay
T2 sequence (Q96DB2 whole entry): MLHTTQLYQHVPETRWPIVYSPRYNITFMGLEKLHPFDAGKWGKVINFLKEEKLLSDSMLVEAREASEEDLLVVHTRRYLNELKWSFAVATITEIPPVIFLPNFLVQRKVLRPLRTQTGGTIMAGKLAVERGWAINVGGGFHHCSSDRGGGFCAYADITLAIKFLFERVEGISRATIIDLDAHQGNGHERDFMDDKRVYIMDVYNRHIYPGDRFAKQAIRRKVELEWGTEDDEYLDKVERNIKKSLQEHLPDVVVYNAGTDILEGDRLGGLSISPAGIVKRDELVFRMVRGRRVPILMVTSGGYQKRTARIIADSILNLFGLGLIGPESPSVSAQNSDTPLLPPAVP

[2] = target: T3, Protein deacetylase HDAC6 (Homo sapiens, UniProt Q9UBN7); test: Inhibition of recombinant full-length human HDAC6 using FAM-RHKK(Ac)-NH2 as substrate by electrophoretic mobility shift assay
T3 sequence (Q9UBN7 whole entry): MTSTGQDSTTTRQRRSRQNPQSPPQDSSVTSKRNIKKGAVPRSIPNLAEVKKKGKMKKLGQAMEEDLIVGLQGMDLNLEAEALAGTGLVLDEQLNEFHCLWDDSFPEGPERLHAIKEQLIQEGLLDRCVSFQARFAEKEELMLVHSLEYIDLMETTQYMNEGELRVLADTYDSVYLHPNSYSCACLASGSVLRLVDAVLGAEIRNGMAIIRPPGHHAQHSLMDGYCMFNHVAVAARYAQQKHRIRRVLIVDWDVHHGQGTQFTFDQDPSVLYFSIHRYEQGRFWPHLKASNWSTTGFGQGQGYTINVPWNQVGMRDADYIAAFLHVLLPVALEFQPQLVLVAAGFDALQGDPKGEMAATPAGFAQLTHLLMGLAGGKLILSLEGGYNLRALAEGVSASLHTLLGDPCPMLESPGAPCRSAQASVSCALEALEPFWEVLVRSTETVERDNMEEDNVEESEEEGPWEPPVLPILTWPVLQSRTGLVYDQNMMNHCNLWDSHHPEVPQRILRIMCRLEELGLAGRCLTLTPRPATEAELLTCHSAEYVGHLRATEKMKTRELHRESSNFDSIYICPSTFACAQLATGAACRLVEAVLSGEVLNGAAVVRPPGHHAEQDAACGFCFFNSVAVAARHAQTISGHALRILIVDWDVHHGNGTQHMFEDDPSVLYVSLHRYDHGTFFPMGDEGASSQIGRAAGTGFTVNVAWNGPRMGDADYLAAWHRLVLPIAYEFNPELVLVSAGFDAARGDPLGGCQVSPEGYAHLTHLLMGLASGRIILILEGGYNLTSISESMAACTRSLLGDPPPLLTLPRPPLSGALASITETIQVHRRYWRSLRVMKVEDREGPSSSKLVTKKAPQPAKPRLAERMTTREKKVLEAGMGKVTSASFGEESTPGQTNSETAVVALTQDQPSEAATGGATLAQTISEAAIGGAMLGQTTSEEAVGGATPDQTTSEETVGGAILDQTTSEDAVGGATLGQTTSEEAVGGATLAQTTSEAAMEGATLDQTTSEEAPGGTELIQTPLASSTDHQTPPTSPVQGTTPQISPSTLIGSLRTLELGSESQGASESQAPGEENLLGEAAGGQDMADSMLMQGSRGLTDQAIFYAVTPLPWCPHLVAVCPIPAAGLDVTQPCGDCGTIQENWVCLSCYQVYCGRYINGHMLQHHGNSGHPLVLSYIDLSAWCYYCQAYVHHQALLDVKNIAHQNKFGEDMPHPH

Histone deacetylase 8 = target: T4, Histone deacetylase 8 (Homo sapiens, UniProt Q9BY41); test: Inhibition of recombinant full-length human HDAC8 using FAM-RHKK(Ac)-NH2 as substrate by electrophoretic mobility shift assay
T4 sequence (Q9BY41 whole entry): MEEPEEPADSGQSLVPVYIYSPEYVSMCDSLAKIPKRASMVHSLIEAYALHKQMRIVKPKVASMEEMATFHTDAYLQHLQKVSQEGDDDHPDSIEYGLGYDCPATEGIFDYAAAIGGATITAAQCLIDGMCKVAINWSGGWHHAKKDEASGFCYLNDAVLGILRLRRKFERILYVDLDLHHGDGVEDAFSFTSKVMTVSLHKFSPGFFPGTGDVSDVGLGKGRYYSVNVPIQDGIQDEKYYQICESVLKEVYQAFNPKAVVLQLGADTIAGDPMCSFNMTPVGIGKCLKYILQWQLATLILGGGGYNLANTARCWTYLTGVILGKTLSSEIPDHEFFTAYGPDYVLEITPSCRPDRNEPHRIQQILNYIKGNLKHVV

Histone deacetylase 5 = Histone deacetylase 5 (Homo sapiens, UniProt Q9UQL6); test: Inhibition of recombinant full-length human HDAC5 using FAM-RHKK (trifluor-Ac)-NH2 as substrate by electrophoretic mobility shift assay
Histone deacetylase 7 = target: T5, Histone deacetylase 7 (Homo sapiens, UniProt Q8WUI4); test: Inhibition of recombinant full-length human HDAC7 using FAM-RHKK (trifluor-Ac)-NH2 as substrate by electrophoretic mobility shift assay
T5 sequence (Q8WUI4 whole entry): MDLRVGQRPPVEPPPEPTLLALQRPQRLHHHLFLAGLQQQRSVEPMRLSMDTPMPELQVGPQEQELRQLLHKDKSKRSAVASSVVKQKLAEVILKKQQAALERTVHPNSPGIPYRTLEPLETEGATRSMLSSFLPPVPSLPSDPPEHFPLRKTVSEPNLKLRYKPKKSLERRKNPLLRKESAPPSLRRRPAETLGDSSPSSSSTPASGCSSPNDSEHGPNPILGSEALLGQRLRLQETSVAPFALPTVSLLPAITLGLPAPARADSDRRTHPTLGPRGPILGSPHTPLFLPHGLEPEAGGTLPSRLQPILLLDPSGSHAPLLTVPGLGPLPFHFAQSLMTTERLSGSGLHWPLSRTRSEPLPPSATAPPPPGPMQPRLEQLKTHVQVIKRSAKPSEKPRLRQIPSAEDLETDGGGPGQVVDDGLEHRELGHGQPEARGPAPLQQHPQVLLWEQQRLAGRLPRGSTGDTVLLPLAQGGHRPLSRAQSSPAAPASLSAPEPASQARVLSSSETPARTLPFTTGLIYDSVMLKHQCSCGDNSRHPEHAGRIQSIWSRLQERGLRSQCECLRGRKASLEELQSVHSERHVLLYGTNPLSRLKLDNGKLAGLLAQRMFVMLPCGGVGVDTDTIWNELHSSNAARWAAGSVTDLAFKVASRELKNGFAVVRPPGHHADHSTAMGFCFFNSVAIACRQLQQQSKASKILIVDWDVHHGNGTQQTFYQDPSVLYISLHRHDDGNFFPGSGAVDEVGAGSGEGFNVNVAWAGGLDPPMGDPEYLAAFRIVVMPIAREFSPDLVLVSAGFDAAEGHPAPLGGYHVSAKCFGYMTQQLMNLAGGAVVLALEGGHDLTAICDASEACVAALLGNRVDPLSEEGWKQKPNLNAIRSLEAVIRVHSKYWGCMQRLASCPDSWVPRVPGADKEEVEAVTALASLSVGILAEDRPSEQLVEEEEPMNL

Histone deacetylase 3, sequence (O15379 whole entry): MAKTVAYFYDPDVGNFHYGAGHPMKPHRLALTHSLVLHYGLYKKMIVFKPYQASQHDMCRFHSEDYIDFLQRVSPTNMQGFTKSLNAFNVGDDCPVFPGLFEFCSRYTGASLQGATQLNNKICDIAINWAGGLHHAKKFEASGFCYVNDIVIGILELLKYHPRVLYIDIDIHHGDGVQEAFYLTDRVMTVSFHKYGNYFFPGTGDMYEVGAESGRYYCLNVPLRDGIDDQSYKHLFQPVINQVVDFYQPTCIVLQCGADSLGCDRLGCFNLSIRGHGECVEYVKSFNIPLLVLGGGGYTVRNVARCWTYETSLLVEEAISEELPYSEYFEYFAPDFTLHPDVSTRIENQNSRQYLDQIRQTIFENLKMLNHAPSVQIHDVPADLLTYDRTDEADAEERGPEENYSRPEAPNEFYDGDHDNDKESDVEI
Histone deacetylase 5, sequence (Q9UQL6 whole entry): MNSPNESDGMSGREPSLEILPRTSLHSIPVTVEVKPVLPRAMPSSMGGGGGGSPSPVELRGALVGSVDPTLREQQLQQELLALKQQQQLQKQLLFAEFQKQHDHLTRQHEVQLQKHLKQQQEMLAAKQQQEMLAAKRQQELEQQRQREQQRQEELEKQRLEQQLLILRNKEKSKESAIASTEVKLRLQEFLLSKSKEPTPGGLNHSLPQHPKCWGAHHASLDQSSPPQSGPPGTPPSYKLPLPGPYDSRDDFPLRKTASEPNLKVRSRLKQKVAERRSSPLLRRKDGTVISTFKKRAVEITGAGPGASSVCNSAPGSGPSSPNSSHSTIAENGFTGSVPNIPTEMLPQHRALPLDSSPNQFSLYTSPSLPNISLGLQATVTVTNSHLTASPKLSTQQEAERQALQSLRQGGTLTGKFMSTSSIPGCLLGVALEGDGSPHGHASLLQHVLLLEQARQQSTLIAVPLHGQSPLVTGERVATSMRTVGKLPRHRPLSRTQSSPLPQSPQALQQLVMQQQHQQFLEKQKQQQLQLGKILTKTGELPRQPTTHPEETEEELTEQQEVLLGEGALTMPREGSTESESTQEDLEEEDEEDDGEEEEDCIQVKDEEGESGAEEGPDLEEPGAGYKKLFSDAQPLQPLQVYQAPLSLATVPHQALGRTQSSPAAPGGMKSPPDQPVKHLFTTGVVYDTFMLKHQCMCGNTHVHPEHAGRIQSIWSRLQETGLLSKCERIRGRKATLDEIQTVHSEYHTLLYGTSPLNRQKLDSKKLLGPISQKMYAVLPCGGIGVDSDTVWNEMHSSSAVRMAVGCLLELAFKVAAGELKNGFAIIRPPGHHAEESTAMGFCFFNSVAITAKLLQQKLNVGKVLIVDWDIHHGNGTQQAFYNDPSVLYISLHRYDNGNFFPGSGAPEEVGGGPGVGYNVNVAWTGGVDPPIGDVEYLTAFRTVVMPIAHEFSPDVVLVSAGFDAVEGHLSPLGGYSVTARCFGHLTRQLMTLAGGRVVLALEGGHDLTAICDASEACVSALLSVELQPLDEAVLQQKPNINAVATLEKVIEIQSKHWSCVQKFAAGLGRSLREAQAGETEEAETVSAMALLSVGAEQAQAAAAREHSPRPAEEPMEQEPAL
Histone deacetylase 2, sequence (Q92769 whole entry): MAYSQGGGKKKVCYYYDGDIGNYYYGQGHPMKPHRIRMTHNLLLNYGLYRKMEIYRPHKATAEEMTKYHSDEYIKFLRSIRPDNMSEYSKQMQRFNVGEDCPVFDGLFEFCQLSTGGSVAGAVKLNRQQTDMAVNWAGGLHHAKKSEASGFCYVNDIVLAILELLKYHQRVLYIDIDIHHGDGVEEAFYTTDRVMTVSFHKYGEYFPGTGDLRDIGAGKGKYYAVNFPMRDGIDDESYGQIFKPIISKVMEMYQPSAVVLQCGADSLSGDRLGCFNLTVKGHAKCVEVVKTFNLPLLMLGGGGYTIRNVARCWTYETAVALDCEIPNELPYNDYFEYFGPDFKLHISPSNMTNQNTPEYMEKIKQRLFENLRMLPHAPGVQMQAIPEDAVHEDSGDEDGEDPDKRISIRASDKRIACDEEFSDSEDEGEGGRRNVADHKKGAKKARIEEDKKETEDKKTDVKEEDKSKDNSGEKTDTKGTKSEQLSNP
Histone deacetylase 4, sequence (P56524 whole entry): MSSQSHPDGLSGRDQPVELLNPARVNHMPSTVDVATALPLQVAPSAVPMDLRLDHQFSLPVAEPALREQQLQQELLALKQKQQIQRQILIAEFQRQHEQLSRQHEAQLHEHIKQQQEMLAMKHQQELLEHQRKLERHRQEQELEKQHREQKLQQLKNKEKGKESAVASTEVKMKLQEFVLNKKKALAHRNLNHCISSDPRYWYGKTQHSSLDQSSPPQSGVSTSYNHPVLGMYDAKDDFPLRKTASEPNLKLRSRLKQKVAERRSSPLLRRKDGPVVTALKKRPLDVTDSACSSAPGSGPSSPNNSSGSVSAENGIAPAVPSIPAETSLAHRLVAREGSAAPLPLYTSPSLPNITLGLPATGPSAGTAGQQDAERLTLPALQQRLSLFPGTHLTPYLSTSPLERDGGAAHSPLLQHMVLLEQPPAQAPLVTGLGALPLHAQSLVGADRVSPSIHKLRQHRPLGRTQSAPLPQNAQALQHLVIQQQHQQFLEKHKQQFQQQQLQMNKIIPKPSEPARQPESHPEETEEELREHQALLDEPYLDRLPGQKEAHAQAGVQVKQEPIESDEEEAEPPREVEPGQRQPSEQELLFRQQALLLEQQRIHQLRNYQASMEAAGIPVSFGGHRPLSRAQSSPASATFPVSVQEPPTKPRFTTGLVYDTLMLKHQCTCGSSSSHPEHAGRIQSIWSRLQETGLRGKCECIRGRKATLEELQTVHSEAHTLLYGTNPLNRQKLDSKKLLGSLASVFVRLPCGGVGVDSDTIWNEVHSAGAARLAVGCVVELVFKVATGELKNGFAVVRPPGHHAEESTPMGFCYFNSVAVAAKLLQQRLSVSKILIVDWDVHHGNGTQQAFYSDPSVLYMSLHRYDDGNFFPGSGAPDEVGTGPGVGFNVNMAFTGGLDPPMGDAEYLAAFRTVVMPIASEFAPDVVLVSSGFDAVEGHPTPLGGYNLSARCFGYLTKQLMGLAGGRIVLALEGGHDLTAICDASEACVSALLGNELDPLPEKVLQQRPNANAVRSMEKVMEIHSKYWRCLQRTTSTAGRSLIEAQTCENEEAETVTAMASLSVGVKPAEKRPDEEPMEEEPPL
Histone deacetylase 1, sequence (Q13547 whole entry): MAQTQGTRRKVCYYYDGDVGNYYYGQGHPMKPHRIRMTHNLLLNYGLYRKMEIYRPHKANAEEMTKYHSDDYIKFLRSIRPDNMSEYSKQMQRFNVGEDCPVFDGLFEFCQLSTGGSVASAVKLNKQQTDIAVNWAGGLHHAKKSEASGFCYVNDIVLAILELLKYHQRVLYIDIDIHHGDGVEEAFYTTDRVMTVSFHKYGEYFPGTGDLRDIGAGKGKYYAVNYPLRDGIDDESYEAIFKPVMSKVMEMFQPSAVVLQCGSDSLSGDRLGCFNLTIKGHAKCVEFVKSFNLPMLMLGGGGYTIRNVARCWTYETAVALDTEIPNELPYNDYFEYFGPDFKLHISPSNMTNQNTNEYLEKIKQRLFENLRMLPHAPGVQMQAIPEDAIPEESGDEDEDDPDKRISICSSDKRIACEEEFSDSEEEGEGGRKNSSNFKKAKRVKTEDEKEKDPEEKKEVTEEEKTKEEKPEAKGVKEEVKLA
Histone deacetylase 9, sequence (Q9UKV0 whole entry): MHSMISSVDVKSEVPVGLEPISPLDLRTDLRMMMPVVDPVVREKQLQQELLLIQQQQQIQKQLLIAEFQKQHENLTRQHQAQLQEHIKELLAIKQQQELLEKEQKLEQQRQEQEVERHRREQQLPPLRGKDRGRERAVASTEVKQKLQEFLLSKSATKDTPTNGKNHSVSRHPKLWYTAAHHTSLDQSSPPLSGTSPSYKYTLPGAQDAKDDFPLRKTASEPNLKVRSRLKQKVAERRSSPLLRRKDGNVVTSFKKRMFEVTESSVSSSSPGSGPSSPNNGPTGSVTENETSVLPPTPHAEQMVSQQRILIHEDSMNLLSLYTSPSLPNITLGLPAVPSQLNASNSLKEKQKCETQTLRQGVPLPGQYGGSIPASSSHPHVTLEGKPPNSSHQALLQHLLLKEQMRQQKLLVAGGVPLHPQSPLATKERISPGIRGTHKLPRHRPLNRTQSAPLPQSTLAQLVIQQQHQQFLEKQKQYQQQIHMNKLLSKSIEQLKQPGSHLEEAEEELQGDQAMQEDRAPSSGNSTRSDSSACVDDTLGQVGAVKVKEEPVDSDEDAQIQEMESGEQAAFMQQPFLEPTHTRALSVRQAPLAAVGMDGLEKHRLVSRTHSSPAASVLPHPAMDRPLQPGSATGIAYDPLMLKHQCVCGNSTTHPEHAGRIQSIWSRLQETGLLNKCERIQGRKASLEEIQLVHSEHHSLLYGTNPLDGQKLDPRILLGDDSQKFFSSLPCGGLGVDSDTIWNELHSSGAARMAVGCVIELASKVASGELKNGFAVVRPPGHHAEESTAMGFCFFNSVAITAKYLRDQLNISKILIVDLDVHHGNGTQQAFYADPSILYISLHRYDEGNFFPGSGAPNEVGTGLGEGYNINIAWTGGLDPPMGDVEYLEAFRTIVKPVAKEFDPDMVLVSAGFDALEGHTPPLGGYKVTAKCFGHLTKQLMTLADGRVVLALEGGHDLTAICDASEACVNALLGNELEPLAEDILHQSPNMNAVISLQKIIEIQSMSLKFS

Compound | IC50 [1] | IC50 (Histone deacetylase 9) | IC50 (Histone deacetylase 2) | IC50 (Histone deacetylase 1) | IC50 (Histone deacetylase 3) | IC50 (Histone deacetylase 4) | IC50 (Histone deacetylase 11) | IC50 [2] | IC50 (Histone deacetylase 8) | IC50 (Histone deacetylase 5) | IC50 (Histone deacetylase 7)
O=C(NCC12C[C@H]3C[C@@H](C1)C[C@@H](C2)C3)c1ccc2c(ccn2Cc2ccc(C(=O)NO)c(Br)c2)c1 | 8.97 µM | 9.31 µM | > 10 µM | 7.32 µM | 2230 nM |  |  |  |  |  | 
COc1cc(C(=O)NO)ccc1Cn1ccc2cc(C(=O)NCC34C[C@H]5C[C@@H](C3)C[C@@H](C4)C5)ccc21 | > 10 µM | 2.84 µM | > 10 µM | > 10 µM | 1330 nM | 3040 nM | 93 nM | 640 nM | 160 nM | 1.88 µM | 
COc1cc(C(=O)NCC23CC4CC(CC(C4)C2)C3)ccc1C(=O)NO |  |  |  |  |  |  | 8890 nM |  |  |  | 
O=C(NCC12C[C@H]3C[C@@H](C1)C[C@@H](C2)C3)c1ccc2c(ccn2Cc2ccc(C(=O)NO)c(F)c2)c1 | 0.6 µM |  | 3.4 µM |  | 180 nM |  | 79 nM |  |  |  | 
O=C(NO)c1ccc(Cn2ccc3cc(C(=O)NCC45C[C@H]6C[C@@H](C4)C[C@@H](C5)C6)ccc32)cc1 | > 10 µM | 5.25 µM | 1.9 µM | 0.88 µM | 980 nM | 1090 nM | 480 nM |  | 1950 nM | > 10 µM | 
CCOc1cc(Cn2ccc3cc(C(=O)NCC45C[C@H]6C[C@@H](C4)C[C@@H](C5)C6)ccc32)ccc1C(=O)NO | > 10 µM | > 10 µM | > 10 µM | > 10 µM |  | > 10000 nM | 250 nM |  | > 10000 nM |  | 4030 nM
O=C(NCC12C[C@H]3C[C@@H](C1)C[C@@H](C2)C3)c1ccc2c(ccn2Cc2ccc(C(=O)NO)c(O)c2)c1 | > 10 µM |  | > 10 µM | > 10 µM | 8120 nM |  |  |  |  | 7.25 µM | 
O=C(NCC12C[C@H]3C[C@@H](C1)C[C@@H](C2)C3)c1ccc2c(ccn2Cc2ccc(C(=O)NO)c(Cl)c2)c1 | 9.05 µM | 4.53 µM | > 10 µM | > 10 µM |  |  | 140 nM | 220 nM | 410 nM |  | 570 nM
O=C(NO)c1ccc(Cn2ccc3cc(C(=O)NCC45C[C@H]6C[C@@H](C4)C[C@@H](C5)C6)ccc32)c(F)c1 | 0.23 µM | 2.09 µM | 1.02 µM | 0.19 µM | 690 nM | 1120 nM |  | 8 nM |  | > 10 µM | 
CCCNNC(=O)c1ccc(Cn2ccc3cc(C(=O)NCC45C[C@H]6C[C@@H](C4)C[C@@H](C5)C6)ccc32)cc1 |  |  |  |  |  |  | 2610 nM |  |  |  | 
Cc1cc(Cn2ccc3cc(C(=O)NCC45C[C@H]6C[C@@H](C4)C[C@@H](C5)C6)ccc32)ccc1C(=O)NO | > 10 µM |  | > 10 µM | > 10 µM | > 10000 nM | > 10000 nM | 350 nM |  | 2060 nM |  | 
COc1cc(CN(C)CCC23CC4CC(CC(C4)C2)C3)ccc1C(=O)NO |  |  |  |  |  |  | 4210 nM | > 10000 nM |  |  | 
COc1cc(CN(C)CC23CC4CC(CC(C4)C2)C3)ccc1C(=O)NO |  |  |  |  |  |  | > 10000 nM | > 10000 nM |  |  | 
